Earlier results as cited in patent US12491200B2, “Compositions and methods using cannabinoids for treating stammering/stuttering and symptoms of Tourette syndrome” (priority 2019, dated 2025).

What was measured:
tic disorders = details: for tic symptom score: compared with placebo; for most common adverse events: tic disorders
Tourette syndrome = details: patients aged between 16 and 19; very high doses

## OCCOCCN1CCN(C2=Nc3ccccc3Sc3ccccc32)CC1 [quetiapine]
Tic disorders
  tic symptom score: significantly improve tic symptom score

## O=C(CCCN1CCC(O)(c2ccc(Cl)cc2)CC1)c1ccc(F)cc1 [haloperidol]
Tic disorders
  tic symptom score: significantly improve tic symptom score
  most common adverse events: drowsiness, extrapyramidal reactions, and dry mouth
Developmental stuttering
  speech fluency: improve speech fluency

## Cc1nc2n(c(=O)c1CCN1CCC(c3noc4cc(F)ccc34)CC1)CCCC2 [risperidone]
Tic disorders
  tic symptom score: significantly improve tic symptom score
  most common adverse events: drowsiness and appetite
Developmental stuttering
  speech fluency: improve speech fluency

## O=C1CCc2ccc(OCCCCN3CCN(c4cccc(Cl)c4Cl)CC3)cc2N1 [aripiprazole]
Tic disorders
  tic symptom score: significantly improve tic symptom score
  most common adverse events: dizziness, nausea, and dry mouth

## O=C1Cc2cc(CCN3CCN(c4nsc5ccccc45)CC3)c(Cl)cc2N1 [ziprasidone]
Tic disorders
  tic symptom score: significantly improve tic symptom score

## CCN(CC)CCNC(=O)c1cc(S(C)(=O)=O)ccc1OC [tiapride]
Tic disorders
  most common adverse events: dizziness, nausea, and dry mouth

## CCCCCc1cc(O)c2c(c1)OC(C)(C)[C@@H]1CCC(C)=C[C@@H]21 [synthetic THC, delta-9-tetrahydrocannabinol]
Tourette syndrome
  symptoms such as vocal blocking tics and comorbid conditions: significant improvement

## N[C@@H](Cc1ccc(O)c(O)c1)C(=O)O [levodopa]
Developmental stuttering
  speech fluency: worsening speech fluency
